These molecules were tested against DYRK2 (human) (UniProt Q92630) (assay: radiometric filter-binding kinase assay, Kinase HotSpot). Conditions: compound 0.5 µM; ATP 10 µM.

Point of comparison: `CCOc1cc2ncnc(Nc3cccc(Br)c3)c2cc1OCC`, residual activity 88.8%. Against it:
- COc1cc2ncnc(Nc3ccc(O)c(Br)c3)c2cc1OC — lower, 60%
- O=C1NC(=O)c2c1c1c3ccccc3[nH]c1c1[nH]c3cc(Br)ccc3c21 — lower, 70.5%
- COc1cc2c(cc1OC)-c1[nH]nc(Nc3cccc(F)c3)c1C2 — higher, 95.3%

The molecules below were run against CLK4 (human) (UniProt Q9HAZ1) in the same assay as above. Conditions: compound 0.5 µM; ATP 10 µM.

Point of comparison: `COc1cc2ncnc(Nc3ccc(O)c(Br)c3)c2cc1OC`, residual activity 101%. Against it:
- CCOc1cc2ncnc(Nc3cccc(Br)c3)c2cc1OCC — lower, 83.1%
- O=C1NC(=O)c2c1c1c3ccccc3[nH]c1c1[nH]c3cc(Br)ccc3c21 — lower, 49.5%
- COc1cc2c(cc1OC)-c1[nH]nc(Nc3cccc(F)c3)c1C2 — lower, 77.7%

These molecules were tested against ERBB2 (human) (UniProt P04626) in the same assay as above. Conditions: compound 0.5 µM; ATP 10 µM.

Point of comparison: `O=C1NC(=O)c2c1c1c3ccccc3[nH]c1c1[nH]c3cc(Br)ccc3c21`, residual activity 101%. Against it:
- COc1cc2ncnc(Nc3ccc(O)c(Br)c3)c2cc1OC — lower, 33.1%
- CCOc1cc2ncnc(Nc3cccc(Br)c3)c2cc1OCC — lower, 13.8%
- COc1cc2c(cc1OC)-c1[nH]nc(Nc3cccc(F)c3)c1C2 — the same, 101%

The molecules below were run against CDK5 CDK5R1 p35 (human) (UniProt Q00535+Q15078) in the same assay as above. Conditions: compound 0.5 µM; ATP 10 µM.

Point of comparison: `COc1cc2c(cc1OC)-c1[nH]nc(Nc3cccc(F)c3)c1C2`, residual activity 102%. Against it:
- COc1cc2ncnc(Nc3ccc(O)c(Br)c3)c2cc1OC — lower, 99.6%
- CCOc1cc2ncnc(Nc3cccc(Br)c3)c2cc1OCC — lower, 99.2%
- O=C1NC(=O)c2c1c1c3ccccc3[nH]c1c1[nH]c3cc(Br)ccc3c21 — lower, 44.1%

The molecules below were run against PBK (human) (UniProt Q96KB5) in the same assay as above. Conditions: compound 0.5 µM; ATP 10 µM.
Sequence of PBK (human) (Q96KB5 whole entry, looked up): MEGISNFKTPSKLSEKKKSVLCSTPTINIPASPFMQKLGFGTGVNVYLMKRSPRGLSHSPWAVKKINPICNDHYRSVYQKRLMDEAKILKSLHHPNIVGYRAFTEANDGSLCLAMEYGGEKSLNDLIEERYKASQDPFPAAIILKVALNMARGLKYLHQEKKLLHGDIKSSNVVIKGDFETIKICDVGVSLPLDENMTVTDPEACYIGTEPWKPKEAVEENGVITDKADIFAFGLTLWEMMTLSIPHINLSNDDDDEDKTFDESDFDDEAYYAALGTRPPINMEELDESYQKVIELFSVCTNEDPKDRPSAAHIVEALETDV

Point of comparison: `COc1cc2c(cc1OC)-c1[nH]nc(Nc3cccc(F)c3)c1C2`, residual activity 86.8%. Against it:
- COc1cc2ncnc(Nc3ccc(O)c(Br)c3)c2cc1OC — higher, 101%
- CCOc1cc2ncnc(Nc3cccc(Br)c3)c2cc1OCC — higher, 102%
- O=C1NC(=O)c2c1c1c3ccccc3[nH]c1c1[nH]c3cc(Br)ccc3c21 — lower, 86.3%

Each molecule was assayed against PDGFRA (human) (UniProt P16234) in the same assay as above. Conditions: compound 0.5 µM; ATP 10 µM.

Point of comparison: `COc1cc2c(cc1OC)-c1[nH]nc(Nc3cccc(F)c3)c1C2`, residual activity 33.4%. Against it:
- COc1cc2ncnc(Nc3ccc(O)c(Br)c3)c2cc1OC — higher, 88.9%
- CCOc1cc2ncnc(Nc3cccc(Br)c3)c2cc1OCC — higher, 84.7%
- O=C1NC(=O)c2c1c1c3ccccc3[nH]c1c1[nH]c3cc(Br)ccc3c21 — higher, 97.6%

Each molecule was assayed against NLK (human) (UniProt Q9UBE8) in the same assay as above. Conditions: compound 0.5 µM; ATP 10 µM.

Point of comparison: `COc1cc2ncnc(Nc3ccc(O)c(Br)c3)c2cc1OC`, residual activity 76.2%. Against it:
- CCOc1cc2ncnc(Nc3cccc(Br)c3)c2cc1OCC — higher, 95.9%
- O=C1NC(=O)c2c1c1c3ccccc3[nH]c1c1[nH]c3cc(Br)ccc3c21 — higher, 81.7%
- COc1cc2c(cc1OC)-c1[nH]nc(Nc3cccc(F)c3)c1C2 — lower, 74.1%

Each molecule was assayed against MARK3 (human) (UniProt P27448) in the same assay as above. Conditions: compound 0.5 µM; ATP 10 µM.

Point of comparison: `CCOc1cc2ncnc(Nc3cccc(Br)c3)c2cc1OCC`, residual activity 98.8%. Against it:
- COc1cc2ncnc(Nc3ccc(O)c(Br)c3)c2cc1OC — the same, 98.8%
- O=C1NC(=O)c2c1c1c3ccccc3[nH]c1c1[nH]c3cc(Br)ccc3c21 — lower, 57.3%
- COc1cc2c(cc1OC)-c1[nH]nc(Nc3cccc(F)c3)c1C2 — lower, 69.9%

Each molecule was assayed against TSSK1B (human) (UniProt Q9BXA7) in the same assay as above. Conditions: compound 0.5 µM; ATP 10 µM.
Sequence of TSSK1B (human) (Q9BXA7 whole entry, looked up): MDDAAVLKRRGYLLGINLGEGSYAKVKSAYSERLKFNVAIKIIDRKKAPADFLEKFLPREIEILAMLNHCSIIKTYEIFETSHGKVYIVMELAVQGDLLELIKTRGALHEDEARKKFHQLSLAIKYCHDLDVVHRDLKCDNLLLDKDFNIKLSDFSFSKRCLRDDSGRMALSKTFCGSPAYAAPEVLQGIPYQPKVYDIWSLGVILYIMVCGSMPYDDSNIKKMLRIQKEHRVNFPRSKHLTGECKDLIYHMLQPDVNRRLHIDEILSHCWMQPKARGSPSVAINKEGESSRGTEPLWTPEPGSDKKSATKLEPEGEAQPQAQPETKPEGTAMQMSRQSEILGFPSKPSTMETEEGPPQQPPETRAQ

Point of comparison: `COc1cc2ncnc(Nc3ccc(O)c(Br)c3)c2cc1OC`, residual activity 84.7%. Against it:
- CCOc1cc2ncnc(Nc3cccc(Br)c3)c2cc1OCC — higher, 92.9%
- O=C1NC(=O)c2c1c1c3ccccc3[nH]c1c1[nH]c3cc(Br)ccc3c21 — higher, 86.5%
- COc1cc2c(cc1OC)-c1[nH]nc(Nc3cccc(F)c3)c1C2 — lower, 71.7%

The molecules below were run against PRKCB2 (human) (UniProt P05771) in the same assay as above. Conditions: compound 0.5 µM; ATP 10 µM.

Point of comparison: `CCOc1cc2ncnc(Nc3cccc(Br)c3)c2cc1OCC`, residual activity 98.6%. Against it:
- COc1cc2ncnc(Nc3ccc(O)c(Br)c3)c2cc1OC — higher, 98.7%
- O=C1NC(=O)c2c1c1c3ccccc3[nH]c1c1[nH]c3cc(Br)ccc3c21 — lower, 72.8%
- COc1cc2c(cc1OC)-c1[nH]nc(Nc3cccc(F)c3)c1C2 — higher, 103%

What follows are molecules tested against GSK3B (human) (UniProt P49841) in the same assay as above. Conditions: compound 0.5 µM; ATP 10 µM.

Point of comparison: `O=C1NC(=O)c2c1c1c3ccccc3[nH]c1c1[nH]c3cc(Br)ccc3c21`, residual activity 63.7%. Against it:
- COc1cc2ncnc(Nc3ccc(O)c(Br)c3)c2cc1OC — higher, 92%
- CCOc1cc2ncnc(Nc3cccc(Br)c3)c2cc1OCC — higher, 96.8%
- COc1cc2c(cc1OC)-c1[nH]nc(Nc3cccc(F)c3)c1C2 — higher, 96.6%

These molecules were tested against CSNK2A1 (human) (UniProt P68400) in the same assay as above. Conditions: compound 0.5 µM; ATP 10 µM.

Point of comparison: `COc1cc2c(cc1OC)-c1[nH]nc(Nc3cccc(F)c3)c1C2`, residual activity 96.6%. Against it:
- COc1cc2ncnc(Nc3ccc(O)c(Br)c3)c2cc1OC — lower, 93.7%
- CCOc1cc2ncnc(Nc3cccc(Br)c3)c2cc1OCC — lower, 95.9%
- O=C1NC(=O)c2c1c1c3ccccc3[nH]c1c1[nH]c3cc(Br)ccc3c21 — lower, 93.1%

The molecules below were run against MET (human) (UniProt P08581) in the same assay as above. Conditions: compound 0.5 µM; ATP 10 µM.

Point of comparison: `O=C1NC(=O)c2c1c1c3ccccc3[nH]c1c1[nH]c3cc(Br)ccc3c21`, residual activity 76.6%. Against it:
- COc1cc2ncnc(Nc3ccc(O)c(Br)c3)c2cc1OC — higher, 96.4%
- CCOc1cc2ncnc(Nc3cccc(Br)c3)c2cc1OCC — higher, 78.6%
- COc1cc2c(cc1OC)-c1[nH]nc(Nc3cccc(F)c3)c1C2 — higher, 97.8%

The molecules below were run against RPS6KB1 (human) (UniProt P23443) in the same assay as above. Conditions: compound 0.5 µM; ATP 10 µM.

Point of comparison: `COc1cc2ncnc(Nc3ccc(O)c(Br)c3)c2cc1OC`, residual activity 82.1%. Against it:
- CCOc1cc2ncnc(Nc3cccc(Br)c3)c2cc1OCC — higher, 95.8%
- O=C1NC(=O)c2c1c1c3ccccc3[nH]c1c1[nH]c3cc(Br)ccc3c21 — lower, 45.2%
- COc1cc2c(cc1OC)-c1[nH]nc(Nc3cccc(F)c3)c1C2 — higher, 99.1%

These molecules were tested against PAK2 (human) (UniProt Q13177) in the same assay as above. Conditions: compound 0.5 µM; ATP 10 µM.

Point of comparison: `CCOc1cc2ncnc(Nc3cccc(Br)c3)c2cc1OCC`, residual activity 105%. Against it:
- COc1cc2ncnc(Nc3ccc(O)c(Br)c3)c2cc1OC — lower, 90.6%
- O=C1NC(=O)c2c1c1c3ccccc3[nH]c1c1[nH]c3cc(Br)ccc3c21 — lower, 101%
- COc1cc2c(cc1OC)-c1[nH]nc(Nc3cccc(F)c3)c1C2 — lower, 99.6%

The molecules below were run against LRRK2 (human) (UniProt Q5S007) in the same assay as above. Conditions: compound 0.5 µM; ATP 10 µM.
Sequence of LRRK2 (human) (Q5S007 whole entry, looked up): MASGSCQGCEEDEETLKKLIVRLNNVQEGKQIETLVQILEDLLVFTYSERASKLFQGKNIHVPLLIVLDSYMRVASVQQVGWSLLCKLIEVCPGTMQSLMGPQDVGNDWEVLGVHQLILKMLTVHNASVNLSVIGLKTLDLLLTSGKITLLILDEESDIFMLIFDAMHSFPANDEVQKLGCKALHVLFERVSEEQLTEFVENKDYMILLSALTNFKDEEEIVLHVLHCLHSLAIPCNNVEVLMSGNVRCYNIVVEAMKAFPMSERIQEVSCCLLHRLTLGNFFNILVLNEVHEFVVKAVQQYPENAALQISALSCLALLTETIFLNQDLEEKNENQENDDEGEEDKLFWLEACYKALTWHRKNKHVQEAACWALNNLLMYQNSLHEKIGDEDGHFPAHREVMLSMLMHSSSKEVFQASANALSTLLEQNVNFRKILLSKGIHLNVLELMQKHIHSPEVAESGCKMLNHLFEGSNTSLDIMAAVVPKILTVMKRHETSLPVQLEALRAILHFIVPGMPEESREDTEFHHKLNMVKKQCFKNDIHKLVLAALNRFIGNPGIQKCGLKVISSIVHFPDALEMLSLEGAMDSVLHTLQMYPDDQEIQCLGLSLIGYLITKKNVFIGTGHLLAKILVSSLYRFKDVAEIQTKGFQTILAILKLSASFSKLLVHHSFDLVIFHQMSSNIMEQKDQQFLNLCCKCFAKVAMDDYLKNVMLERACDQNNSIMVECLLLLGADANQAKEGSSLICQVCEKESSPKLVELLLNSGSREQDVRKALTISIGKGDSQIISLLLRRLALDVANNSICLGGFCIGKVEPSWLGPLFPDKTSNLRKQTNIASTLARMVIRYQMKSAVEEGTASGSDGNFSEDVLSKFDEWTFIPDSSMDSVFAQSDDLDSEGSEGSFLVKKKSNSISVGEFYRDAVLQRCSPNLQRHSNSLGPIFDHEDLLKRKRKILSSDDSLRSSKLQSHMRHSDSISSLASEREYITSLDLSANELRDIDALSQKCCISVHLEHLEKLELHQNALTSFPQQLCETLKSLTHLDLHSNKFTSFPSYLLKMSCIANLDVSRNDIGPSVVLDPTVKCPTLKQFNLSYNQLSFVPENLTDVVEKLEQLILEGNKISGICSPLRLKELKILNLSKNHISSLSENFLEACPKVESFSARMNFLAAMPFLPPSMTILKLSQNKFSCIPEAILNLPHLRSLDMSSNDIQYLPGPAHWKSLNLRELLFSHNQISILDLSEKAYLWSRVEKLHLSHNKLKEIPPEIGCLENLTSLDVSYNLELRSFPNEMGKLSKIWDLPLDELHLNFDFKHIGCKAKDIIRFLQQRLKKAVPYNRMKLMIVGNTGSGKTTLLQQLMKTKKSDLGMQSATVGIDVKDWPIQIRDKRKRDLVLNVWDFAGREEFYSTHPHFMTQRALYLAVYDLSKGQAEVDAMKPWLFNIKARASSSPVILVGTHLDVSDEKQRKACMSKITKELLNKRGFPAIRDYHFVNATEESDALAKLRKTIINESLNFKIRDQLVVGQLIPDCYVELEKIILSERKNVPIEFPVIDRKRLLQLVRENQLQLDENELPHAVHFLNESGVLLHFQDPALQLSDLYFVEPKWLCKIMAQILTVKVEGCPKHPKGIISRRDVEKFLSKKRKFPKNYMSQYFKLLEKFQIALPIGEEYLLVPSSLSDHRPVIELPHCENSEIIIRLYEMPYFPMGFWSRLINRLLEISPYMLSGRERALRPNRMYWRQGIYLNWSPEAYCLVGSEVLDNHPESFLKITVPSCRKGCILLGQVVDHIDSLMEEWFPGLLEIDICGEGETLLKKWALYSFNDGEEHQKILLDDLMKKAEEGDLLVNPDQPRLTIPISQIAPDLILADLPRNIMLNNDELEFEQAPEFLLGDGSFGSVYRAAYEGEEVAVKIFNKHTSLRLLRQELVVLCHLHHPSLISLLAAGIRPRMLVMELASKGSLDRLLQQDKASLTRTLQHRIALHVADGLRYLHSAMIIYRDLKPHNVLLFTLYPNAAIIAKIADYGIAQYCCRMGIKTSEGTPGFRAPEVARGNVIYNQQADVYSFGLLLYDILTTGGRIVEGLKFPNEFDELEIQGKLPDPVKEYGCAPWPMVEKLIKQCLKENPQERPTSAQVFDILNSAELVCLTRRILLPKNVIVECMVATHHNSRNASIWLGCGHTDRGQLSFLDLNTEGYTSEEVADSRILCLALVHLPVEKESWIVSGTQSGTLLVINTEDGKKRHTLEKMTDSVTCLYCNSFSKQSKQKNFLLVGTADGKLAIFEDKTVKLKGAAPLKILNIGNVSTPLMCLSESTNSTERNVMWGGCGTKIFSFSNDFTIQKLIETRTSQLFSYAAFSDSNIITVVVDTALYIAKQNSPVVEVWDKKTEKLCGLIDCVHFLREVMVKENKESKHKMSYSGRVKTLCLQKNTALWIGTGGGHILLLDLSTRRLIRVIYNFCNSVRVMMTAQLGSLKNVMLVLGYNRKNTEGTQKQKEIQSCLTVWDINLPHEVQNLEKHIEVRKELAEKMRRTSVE

Point of comparison: `O=C1NC(=O)c2c1c1c3ccccc3[nH]c1c1[nH]c3cc(Br)ccc3c21`, residual activity 49.8%. Against it:
- COc1cc2ncnc(Nc3ccc(O)c(Br)c3)c2cc1OC — higher, 82.7%
- CCOc1cc2ncnc(Nc3cccc(Br)c3)c2cc1OCC — higher, 78.7%
- COc1cc2c(cc1OC)-c1[nH]nc(Nc3cccc(F)c3)c1C2 — higher, 82.3%

These molecules were tested against PLK2 (human) (UniProt Q9NYY3) in the same assay as above. Conditions: compound 0.5 µM; ATP 10 µM.

Point of comparison: `O=C1NC(=O)c2c1c1c3ccccc3[nH]c1c1[nH]c3cc(Br)ccc3c21`, residual activity 93.7%. Against it:
- COc1cc2ncnc(Nc3ccc(O)c(Br)c3)c2cc1OC — higher, 104%
- CCOc1cc2ncnc(Nc3cccc(Br)c3)c2cc1OCC — higher, 99.8%
- COc1cc2c(cc1OC)-c1[nH]nc(Nc3cccc(F)c3)c1C2 — higher, 97.1%

These molecules were tested against CHUK (human) (UniProt O15111) in the same assay as above. Conditions: compound 0.5 µM; ATP 10 µM.
Sequence of CHUK (human) (O15111 whole entry, looked up): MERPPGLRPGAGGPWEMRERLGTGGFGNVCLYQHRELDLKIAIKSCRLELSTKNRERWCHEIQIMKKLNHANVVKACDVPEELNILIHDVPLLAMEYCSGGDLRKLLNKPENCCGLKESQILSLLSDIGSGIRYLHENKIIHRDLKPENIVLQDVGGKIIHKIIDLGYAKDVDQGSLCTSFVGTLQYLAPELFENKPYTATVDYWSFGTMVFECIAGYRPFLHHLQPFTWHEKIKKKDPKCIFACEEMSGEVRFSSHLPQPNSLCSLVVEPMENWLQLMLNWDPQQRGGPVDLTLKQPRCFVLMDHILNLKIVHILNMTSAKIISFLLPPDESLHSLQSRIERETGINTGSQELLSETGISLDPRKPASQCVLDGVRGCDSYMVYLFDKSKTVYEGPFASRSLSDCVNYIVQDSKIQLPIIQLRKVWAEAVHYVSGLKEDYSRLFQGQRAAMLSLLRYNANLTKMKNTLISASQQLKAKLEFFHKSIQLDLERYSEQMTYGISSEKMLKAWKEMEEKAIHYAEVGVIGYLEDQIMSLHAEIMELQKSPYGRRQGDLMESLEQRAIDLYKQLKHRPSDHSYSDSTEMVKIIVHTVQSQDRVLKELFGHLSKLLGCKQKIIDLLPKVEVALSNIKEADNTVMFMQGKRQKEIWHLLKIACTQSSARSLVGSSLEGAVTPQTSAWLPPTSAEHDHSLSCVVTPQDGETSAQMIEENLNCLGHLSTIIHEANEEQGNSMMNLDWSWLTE

Point of comparison: `COc1cc2c(cc1OC)-c1[nH]nc(Nc3cccc(F)c3)c1C2`, residual activity 91.4%. Against it:
- COc1cc2ncnc(Nc3ccc(O)c(Br)c3)c2cc1OC — higher, 107%
- CCOc1cc2ncnc(Nc3cccc(Br)c3)c2cc1OCC — higher, 105%
- O=C1NC(=O)c2c1c1c3ccccc3[nH]c1c1[nH]c3cc(Br)ccc3c21 — lower, 81.5%

What follows are molecules tested against PAK3 (human) (UniProt O75914) in the same assay as above. Conditions: compound 0.5 µM; ATP 10 µM.

Point of comparison: `O=C1NC(=O)c2c1c1c3ccccc3[nH]c1c1[nH]c3cc(Br)ccc3c21`, residual activity 97.7%. Against it:
- COc1cc2ncnc(Nc3ccc(O)c(Br)c3)c2cc1OC — lower, 94.2%
- CCOc1cc2ncnc(Nc3cccc(Br)c3)c2cc1OCC — lower, 97.6%
- COc1cc2c(cc1OC)-c1[nH]nc(Nc3cccc(F)c3)c1C2 — lower, 93.1%

Each molecule was assayed against EPHA3 (human) (UniProt P29320) in the same assay as above. Conditions: compound 0.5 µM; ATP 10 µM.
Sequence of EPHA3 (human) (P29320 whole entry, looked up): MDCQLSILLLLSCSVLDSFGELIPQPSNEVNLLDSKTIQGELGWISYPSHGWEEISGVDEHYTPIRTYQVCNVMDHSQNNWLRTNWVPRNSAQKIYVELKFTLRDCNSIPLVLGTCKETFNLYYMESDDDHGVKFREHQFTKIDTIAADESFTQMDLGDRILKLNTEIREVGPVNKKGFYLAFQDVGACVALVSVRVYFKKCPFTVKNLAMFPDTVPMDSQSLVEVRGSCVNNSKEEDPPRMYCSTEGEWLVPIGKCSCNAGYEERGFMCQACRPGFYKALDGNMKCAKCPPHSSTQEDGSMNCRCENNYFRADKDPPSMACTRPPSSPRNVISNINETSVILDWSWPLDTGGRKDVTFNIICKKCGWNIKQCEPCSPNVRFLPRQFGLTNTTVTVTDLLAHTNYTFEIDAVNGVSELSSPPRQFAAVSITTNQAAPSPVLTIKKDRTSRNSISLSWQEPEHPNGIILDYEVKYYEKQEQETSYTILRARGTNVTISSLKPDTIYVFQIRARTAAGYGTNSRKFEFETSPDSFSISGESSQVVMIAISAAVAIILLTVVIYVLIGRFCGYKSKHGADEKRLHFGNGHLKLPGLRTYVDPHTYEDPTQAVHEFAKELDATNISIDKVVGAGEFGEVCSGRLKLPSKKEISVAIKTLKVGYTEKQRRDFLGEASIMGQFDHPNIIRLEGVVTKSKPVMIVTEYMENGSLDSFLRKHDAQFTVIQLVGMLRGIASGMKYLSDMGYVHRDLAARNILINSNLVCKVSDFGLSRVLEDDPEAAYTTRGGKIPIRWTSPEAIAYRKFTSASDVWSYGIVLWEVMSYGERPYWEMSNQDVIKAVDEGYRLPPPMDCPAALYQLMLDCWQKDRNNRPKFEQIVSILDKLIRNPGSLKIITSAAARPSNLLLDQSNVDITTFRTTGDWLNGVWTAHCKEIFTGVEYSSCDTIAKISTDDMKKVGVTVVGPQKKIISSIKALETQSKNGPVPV

Point of comparison: `O=C1NC(=O)c2c1c1c3ccccc3[nH]c1c1[nH]c3cc(Br)ccc3c21`, residual activity 100%. Against it:
- COc1cc2ncnc(Nc3ccc(O)c(Br)c3)c2cc1OC — lower, 95.4%
- CCOc1cc2ncnc(Nc3cccc(Br)c3)c2cc1OCC — lower, 83.3%
- COc1cc2c(cc1OC)-c1[nH]nc(Nc3cccc(F)c3)c1C2 — lower, 94.5%

What follows are molecules tested against SRPK1 (human) (UniProt Q96SB4) in the same assay as above. Conditions: compound 0.5 µM; ATP 10 µM.

Point of comparison: `CCOc1cc2ncnc(Nc3cccc(Br)c3)c2cc1OCC`, residual activity 102%. Against it:
- COc1cc2ncnc(Nc3ccc(O)c(Br)c3)c2cc1OC — lower, 91.8%
- O=C1NC(=O)c2c1c1c3ccccc3[nH]c1c1[nH]c3cc(Br)ccc3c21 — lower, 86.4%
- COc1cc2c(cc1OC)-c1[nH]nc(Nc3cccc(F)c3)c1C2 — lower, 101%
